Test results published in patent US20250195536A1, “BICYCLOOCTANE KRAS INHIBITORS” (Incyte Corporation, priority 2023, published 2025).

What was measured:
KRAS G12D = KRAS G12D (Homo sapiens, UniProt P01116, G12D); assay: GDP-GTP exchange assay (KRAS G12D); format: biochemical; details: bodipy-GDP/GppNHp exchange with SOS1; 4 h pre-incubation, 2 h reaction;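 note: one dagger IC50 up to 100 nM and two daggers above 100 nM up to 1 μM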
Method in brief: (§1)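 IC50 came from a four-parameter fit of fluorescence loss (485/520 nm) as SOS1 (150 nM) swapped bodipy-GDP for GppNHp (500 μM) on 2.5 nM KRAS, final concentrations. Compounds were pre-incubated 4 h at r.t. (pH 7.5 Hepes, 10 mM MgCl2); exchange ran 2 h (G12D) or 3 h (G12V).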

[1] = Caco2 assay (permeability, Papp A-B); format: in vitro ADME; details: human, Caco-2, absorptive direction (A-B), 50 μM test compound, 4% BSA in receiver
Method: Caco-2 cells are grown at 37° C. in an atmosphere of 5% CO2 in DMEM growth medium supplemented with 10% (v/v) fetal bovine serum, 1% (v/v) nonessential amino acids, penicillin (100 U/mL), and streptomycin (100 μg/mL). Confluent cell monolayers are subcultured every 7 days or 4 days for Caco-2 by treatment with 0.05% trypsin containing […]. Caco-2 cells are seeded in 96-well Transwell plates. The seeding density for Caco-2 cells is 14,000 cells/well. DMEM growth medium is replaced every other day after seeding. Cell monolayers are used for transport assays between 22 and 25 days for Caco-2 cells.
Cell culture medium is removed and replaced with HBSS. To measure the TEER, the HBSS is added into the donor compartment (apical side) and receiver compartment (basolateral side). The TEER is measured by using a REMS Autosampler to ensure the integrity of the cell monolayers. Caco-2 cell monolayers with TEER values 300 Ω·cm^2 are used for transport experiments. To determine the Papp in the absorptive direction (A-B), solution of test compound (50 μM) in HBSS is added to the donor compartment (apical side), while HBSS solution with 4% BSA is added to the receiver compartment (basolateral side). The apical volume was 0.075 mL, and the basolateral volume is 0.25 mL. The incubation period is 120 min. at 37° C. in an atmosphere of 5% CO2. At the end of the incubation period, samples from the donor and receiver sides are removed and an equal volume of MeCN is added for protein precipitation. The supernatants are collected after centrifugation (3000 rpm, Allegra X-14R Centrifuge from Beckman Coulter, Indianapolis, IN) for LCMS analysis. The permeability value is determined according to the equation:
Papp(cm/s)=(F*VD)/(SA*MD),
where the flux rate (F, mass/time) is calc. from the slope of cumulative amounts of compound of interest on the receiver side, SA is the surface area of the cell membrane, VD is the donor volume, and MD is the initial amount of the solution in the donor chamber.
The symbol “+” indicates a Caco-2 value of ≤0.5, “++” indicates a Caco-2 value of >0.5 but ≤1; and “+++” indicates a Caco-2 value of >1. “NA” indicates Caco-2 value not available.

KRAS G12V = KRAS G12V (Homo sapiens, UniProt P01116, G12V); assay: GDP-GTP exchange assay (KRAS G12V); format: biochemical; details: bodipy-GDP/GppNHp exchange with SOS1; 3 h incubation after GppNHp-SOS1;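 note: one dagger IC50 up to 100 nM and two daggers above 100 nM up to 1 μM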
Method in brief: as §1

Sequence of KRAS G12D (P01116 1-188 isoform P01116-2 G12D): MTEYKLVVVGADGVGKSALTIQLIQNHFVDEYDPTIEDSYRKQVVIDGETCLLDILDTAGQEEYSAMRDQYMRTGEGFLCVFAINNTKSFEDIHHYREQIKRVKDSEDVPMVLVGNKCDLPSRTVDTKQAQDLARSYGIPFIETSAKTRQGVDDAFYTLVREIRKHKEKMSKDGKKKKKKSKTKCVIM
Sequence of KRAS G12V (P01116 1-188 isoform P01116-2 G12V): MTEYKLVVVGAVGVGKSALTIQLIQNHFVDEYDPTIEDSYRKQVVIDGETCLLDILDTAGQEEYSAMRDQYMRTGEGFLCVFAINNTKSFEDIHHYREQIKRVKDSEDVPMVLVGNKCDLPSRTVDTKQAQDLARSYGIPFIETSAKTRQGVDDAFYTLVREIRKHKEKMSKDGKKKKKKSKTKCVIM

SMILES	G12D_exchange (KRAS_G12D exchange assay IC50) (KRAS G12D)	Papp A→B at 120 min, 50 μM [1] [×10⁻⁶ cm/s]	G12V_exchange (KRAS_G12V exchange assay IC50) (KRAS G12V)
Cc1nc2c(F)c(-c3cccc(Cl)c3Cl)c(CCC#N)cc2c2c1cc([C@H]1[C@H]3C[C@H](CN(c4ccc(OC(F)(F)F)cc4)C3)N1C(=O)C1CC1)n2[C@H]1[C@H]2CN[C@@H]1C2 (atropisomer, axis not shown; (Ra)) [Example 3, 3-((Ra)-1-((1R,4R,5S)-2-azabicyclo[2.1.1]hexan-5-yl)-2-((1S,5R,7R)-6-(cyclopropanecarbonyl)-3-(4-(trifluoromethoxy)phenyl)-3,6-diazabicyclo[3.2.1]octan-7-yl)-7-(2,3-dichlorophenyl)-6-fluoro-4-methyl-1H-pyrrolo[3,2-c]quinolin-8-yl)propanenitrile]	††	≤ 0.5	†
Cc1nc2c(F)c(-c3cccc(Cl)c3Cl)c(CCC#N)cc2c2c1cc([C@H]1[C@H]3C[C@H](CN(c4ccc(C#N)cc4)C3)N1C(=O)C1CC1)n2[C@H]1[C@H]2CN[C@@H]1C2 (atropisomer, axis not shown; (Ra)) [Example 4, 4-((1S,5R,7R)-7-((Ra)-1-((1R,4R,5S)-2-azabicyclo[2.1.1]hexan-5-yl)-8-(2-cyanoethyl)-7-(2,3-dichlorophenyl)-6-fluoro-4-methyl-1H-pyrrolo[3,2-c]quinolin-2-yl)-6-(cyclopropanecarbonyl)-3,6-diazabicyclo[3.2.1]octan-3-yl)benzonitrile]	†	≤ 0.5	†
Cc1nc2c(F)c(-c3cccc(Cl)c3Cl)c(CCC#N)cc2c2c1cc([C@H]1[C@H]3C[C@H](CN(c4ccc(C(F)(F)F)nc4)C3)N1C(=O)C1CC1)n2[C@H]1[C@H]2CN[C@@H]1C2 (atropisomer, axis not shown; (Ra)) [Example 5, 3-((Ra)-1-((1R,4R,5S)-2-azabicyclo[2.1.1]hexan-5-yl)-2-((1S,5R,7R)-6-(cyclopropanecarbonyl)-3-(6-(trifluoromethyl)pyridin-3-yl)-3,6-diazabicyclo[3.2.1]octan-7-yl)-7-(2,3-dichlorophenyl)-6-fluoro-4-methyl-1H-pyrrolo[3,2-c]quinolin-8-yl)propanenitrile]	†	≤ 0.5	†
Cc1nc2c(F)c(-c3cccc(Cl)c3Cl)c(CCC#N)cc2c2c1cc([C@H]1[C@H]3C[C@H](CN(c4ccc5c(c4)OC(F)(F)O5)C3)N1C(=O)C1CC1)n2[C@H]1[C@H]2CN[C@@H]1C2 (atropisomer, axis not shown; (Ra)) [Example 7, 3-((Ra)-1-((1R,4R,5S)-2-azabicyclo[2.1.1]hexan-5-yl)-2-((1S,5R,7R)-6-(cyclopropanecarbonyl)-3-(2,2-difluorobenzo[d][1,3]dioxol-5-yl)-3,6-diazabicyclo[3.2.1]octan-7-yl)-7-(2,3-dichlorophenyl)-6-fluoro-4-methyl-1H-pyrrolo[3,2-c]quinolin-8-yl)propanenitrile]	†	≤ 0.5	†
Cc1nc2c(F)c(-c3cccc(Cl)c3Cl)c(CCC#N)cc2c2c1cc([C@H]1[C@H]3C[C@H](CN(c4cnn(C(F)F)c4)C3)N1C(=O)C1CC1)n2[C@H]1[C@H]2CN[C@@H]1C2 (atropisomer, axis not shown; (Ra)) [Example 8, 3-((Ra)-1-((1R,4R,5S)-2-azabicyclo[2.1.1]hexan-5-yl)-2-((1S,5R,7R)-6-(cyclopropanecarbonyl)-3-(1-(difluoromethyl)-1H-pyrazol-4-yl)-3,6-diazabicyclo[3.2.1]octan-7-yl)-7-(2,3-dichlorophenyl)-6-fluoro-4-methyl-1H-pyrrolo[3,2-c]quinolin-8-yl)propanenitrile]	†	≤ 0.5	†
Cc1nc2c(F)c(-c3cccc(Cl)c3Cl)c(CCC#N)cc2c2c1cc([C@H]1[C@H]3C[C@H](CN(c4cccnc4)C3)N1C(=O)C1CC1)n2[C@H]1[C@H]2CN[C@@H]1C2 (atropisomer, axis not shown; (Ra)) [Example 9, 3-((Ra)-1-((1R,4R,5S)-2-azabicyclo[2.1.1]hexan-5-yl)-2-((1S,5R,7R)-6-(cyclopropanecarbonyl)-3-(pyridin-3-yl)-3,6-diazabicyclo[3.2.1]octan-7-yl)-7-(2,3-dichlorophenyl)-6-fluoro-4-methyl-1H-pyrrolo[3,2-c]quinolin-8-yl)propanenitrile]	†	≤ 0.5	†
Cc1nc2c(F)c(-c3cccc(Cl)c3Cl)c(CCC#N)cc2c2c1cc([C@H]1[C@H]3C[C@H](CN(c4cccc(C(F)(F)F)c4)C3)N1C(=O)C1CC1)n2[C@H]1[C@H]2CN[C@@H]1C2 (atropisomer, axis not shown; (Ra)) [Example 10, 3-((Ra)-1-((1R,4R,5S)-2-azabicyclo[2.1.1]hexan-5-yl)-2-((1S,5R,7R)-6-(cyclopropanecarbonyl)-3-(3-(trifluoromethyl)phenyl)-3,6-diazabicyclo[3.2.1]octan-7-yl)-7-(2,3-dichlorophenyl)-6-fluoro-4-methyl-1H-pyrrolo[3,2-c]quinolin-8-yl)propanenitrile]	††	≤ 0.5	†
Cc1nc2c(F)c(-c3cccc(Cl)c3Cl)c(CCC#N)cc2c2c1cc([C@H]1[C@H]3C[C@H](CN(c4ccc(C(F)(F)F)cc4)C3)N1C(=O)C1CC1)n2[C@H]1[C@H]2CN[C@@H]1C2 (atropisomer, axis not shown; (Ra)) [Example 12, 3-((Ra)-1-((1R,4R,5S)-2-azabicyclo[2.1.1]hexan-5-yl)-2-((1S,5R,7R)-6-(cyclopropanecarbonyl)-3-(4-(trifluoromethyl)phenyl)-3,6-diazabicyclo[3.2.1]octan-7-yl)-7-(2,3-dichlorophenyl)-6-fluoro-4-methyl-1H-pyrrolo[3,2-c]quinolin-8-yl)propanenitrile]	††	≤ 0.5	†
Cc1nc2c(F)c(-c3cccc(Cl)c3Cl)c(CCC#N)cc2c2c1cc([C@H]1[C@H]3C[C@H](CN(c4cccc(F)c4)C3)N1C(=O)C1CC1)n2[C@H]1[C@H]2CN[C@@H]1C2 (atropisomer, axis not shown; (Ra)) [Example 13, 3-((Ra)-1-((1R,4R,5S)-2-azabicyclo[2.1.1]hexan-5-yl)-2-((1S,5R,7R)-6-(cyclopropanecarbonyl)-3-(3-fluorophenyl)-3,6-diazabicyclo[3.2.1]octan-7-yl)-7-(2,3-dichlorophenyl)-6-fluoro-4-methyl-1H-pyrrolo[3,2-c]quinolin-8-yl)propanenitrile]	†	≤ 0.5	†
Cc1ccc(N2C[C@@H]3C[C@H](C2)N(C(=O)C2CC2)[C@H]3c2cc3c(C)nc4c(F)c(-c5cccc(Cl)c5Cl)c(CCC#N)cc4c3n2[C@H]2[C@H]3CN[C@@H]2C3)cn1 (atropisomer, axis not shown; (Ra)) [Example 14, 3-((Ra)-1-((1R,4R,5S)-2-azabicyclo[2.1.1]hexan-5-yl)-2-((1S,5R,7R)-6-(cyclopropanecarbonyl)-3-(6-methylpyridin-3-yl)-3,6-diazabicyclo[3.2.1]octan-7-yl)-7-(2,3-dichlorophenyl)-6-fluoro-4-methyl-1H-pyrrolo[3,2-c]quinolin-8-yl)propanenitrile]	†	≤ 0.5	†
